Where two headings read alike, the source gives them in different places.
Key:
Type in all cases: cell-based
NCI-H23 = assay: NCI 60 five-dose screen NCI-H23; settings: Homo sapiens
SW-620 = assay: NCI 60 five-dose screen SW-620; settings: Homo sapiens
RPMI-8226 = assay: NCI 60 five-dose screen RPMI-8226; settings: Homo sapiens
SK-MEL-28 = assay: NCI 60 five-dose screen SK-MEL-28; settings: Homo sapiens
SNB-19 = assay: NCI 60 five-dose screen SNB-19; settings: Homo sapiens
TK-10 = assay: NCI 60 five-dose screen TK-10; settings: Homo sapiens
MDA-MB-435 = assay: NCI 60 five-dose screen MDA-MB-435; settings: Homo sapiens
MALME-3M = assay: NCI 60 five-dose screen MALME-3M; settings: Homo sapiens, Malme-3M
RXF 393 = assay: NCI 60 five-dose screen RXF 393; settings: Homo sapiens
OVCAR-3 = assay: NCI 60 five-dose screen OVCAR-3; settings: Homo sapiens
LOX IMVI = assay: NCI 60 five-dose screen LOX IMVI; settings: Homo sapiens
MOLT-4 = assay: NCI 60 five-dose screen MOLT-4; settings: Homo sapiens
PC-3 = assay: NCI 60 five-dose screen PC-3; settings: Homo sapiens
786-0 = assay: NCI 60 five-dose screen 786-0; settings: Homo sapiens
K-562 = assay: NCI 60 five-dose screen K-562; settings: Homo sapiens
SK-MEL-5 = assay: NCI 60 five-dose screen SK-MEL-5; settings: Homo sapiens
EKVX = assay: NCI 60 five-dose screen EKVX; settings: Homo sapiens
MDA-MB-468 = assay: NCI 60 five-dose screen MDA-MB-468; settings: Homo sapiens
MDA-MB-231/ATCC = assay: NCI 60 five-dose screen MDA-MB-231/ATCC; settings: Homo sapiens
BT-549 = assay: NCI 60 five-dose screen BT-549; settings: Homo sapiens
SK-OV-3 = assay: NCI 60 five-dose screen SK-OV-3; settings: Homo sapiens
DU-145 = assay: NCI 60 five-dose screen DU-145; settings: Homo sapiens
UO-31 = assay: NCI 60 five-dose screen UO-31; settings: Homo sapiens
NCI-H226 = assay: NCI 60 five-dose screen NCI-H226; settings: Homo sapiens
[1] = system: MV-4-11 acute myeloid leukemia cells; assay: CellTiter-Glo 2.0 cell viability, MV-4-11; settings: Homo sapiens
Procedure: 2019 October; 94(4): 1813-1823.
Cell viability was assessed using the CellTiter-Glo 2.0 assay from Promega, which yields a signal proportional to the amount of ATP present in a cell population. Compounds were first dispensed into empty 96-well flat-bottom tissue culture-treated plates (Corning) using an Echo550. MV4-1 cells were diluted to a density of 0.1 million cells per ml, pipetted onto the compounds at a density of 1,000 cells per well for U937 and 3,000 cells per well for MV4-11, mixed, and incubated for 3 days at 37° C. with 5% C02. After incubating, 5 μl of cells from each well were added to 5 μl of CellTiter-Glo 2.0 reagent in a384-well white ProxiPlate (PerkinElmer), incubated for 20 minutes at ambient temperature, and luminescence was analyzed on an EnSpire plate reader. Graphing and regression analysis was performed in Graphpad Prism.

[2] = read-out: LC50 (the source's name) (converted)
[3] = read-out: LC50 (the source's name)

## COc1cc(Cn2c(C(F)(F)F)cc3c(Cl)ncnc32)ccn1 [NUCC-0226694]
NCI-H23
  GI50: 2.19 µM
  IC50: 3.98 µM
  IC (TGI): 4.9 µM
NCI-H23; [2]
  CC50: 13.5 µM
SW-620
  GI50: 3.89 µM
  IC50: 4.9 µM
  IC (TGI): 16.6 µM
SW-620; [2]
  CC50: 49 µM
RPMI-8226
  GI50: 15.5 µM
  IC50: 26.3 µM
  IC (TGI): 79.4 µM
RPMI-8226; [3]
  CC50: ≥ 100 µM
SK-MEL-28
  GI50: 4.57 µM
  IC50: 10 µM
  IC (TGI): 16.2 µM
SK-MEL-28; [2]
  CC50: 40.7 µM
SNB-19
  GI50: 11.7 µM
  IC50: 21.4 µM
  IC (TGI): 24 µM
SNB-19; [2]
  CC50: 49 µM
TK-10
  GI50: 19.1 µM
  IC50: 45.7 µM
  IC (TGI): 46.8 µM
TK-10; [2]
  CC50: ≥ 100 µM
MDA-MB-435
  GI50: 3.24 µM
  IC50: 4.79 µM
  IC (TGI): 14.5 µM
MDA-MB-435; [2]
  CC50: 50.1 µM
MALME-3M
  GI50: 12.6 µM
  IC50: 25.7 µM
  IC (TGI): 25.7 µM
MALME-3M; [2]
  CC50: 51.3 µM
RXF 393
  GI50: 7.94 µM
  IC50: 24.5 µM
  IC (TGI): 22.4 µM
RXF 393; [2]
  CC50: 55 µM
OVCAR-3
  GI50: 2.34 µM
  IC50: 4.07 µM
  IC (TGI): 7.08 µM
OVCAR-3; [2]
  CC50: 30.9 µM
LOX IMVI
  GI50: 1.66 µM
  IC50: 2.88 µM
  IC (TGI): 3.16 µM
LOX IMVI; [2]
  CC50: 6.03 µM
MOLT-4
  GI50: 3.31 µM
  IC50: 4.57 µM
  IC (TGI): 100 µM
MOLT-4; [3]
  CC50: ≥ 100 µM
PC-3
  GI50: 5.5 µM
  IC50: 9.55 µM
  IC (TGI): 20.9 µM
PC-3; [2]
  CC50: 58.9 µM
786-0
  GI50: 10.7 µM
  IC50: 17 µM
  IC (TGI): 25.7 µM
786-0; [2]
  CC50: 63.1 µM
K-562; K562
  GI50: 2.34 µM
  IC50: 2.69 µM
  IC (TGI): 100 µM
K-562; K562, read-out: LC50 (the source's name)
  CC50: ≥ 100 µM
SK-MEL-5
  GI50: 3.89 µM
  IC50: 6.92 µM
  IC (TGI): 14.1 µM
SK-MEL-5; [2]
  CC50: 38 µM
EKVX
  GI50: 7.94 µM
  IC50: 17 µM
  IC (TGI): 24 µM
EKVX; [2]
  CC50: 63.1 µM
MDA-MB-468
  GI50: 1.78 µM
  IC50: 3.98 µM
  IC (TGI): 3.8 µM
MDA-MB-468; [2]
  CC50: 7.94 µM
MDA-MB-231/ATCC
  GI50: 3.31 µM
  IC50: 7.94 µM
  IC (TGI): 12.6 µM
MDA-MB-231/ATCC; [2]
  CC50: 42.7 µM
BT-549
  GI50: 1.62 µM
  IC50: 3.24 µM
  IC (TGI): 3.16 µM
BT-549; [2]
  CC50: 6.03 µM
SK-OV-3
  GI50: 17 µM
  IC50: 32.4 µM
  IC (TGI): 32.4 µM
SK-OV-3; [2]
  CC50: 61.7 µM
DU-145
  GI50: 1.78 µM
  IC50: 3.09 µM
  IC (TGI): 3.24 µM
DU-145; [2]
  CC50: 5.89 µM
UO-31
  GI50: 8.71 µM
  IC50: 18.2 µM
  IC (TGI): 24 µM
UO-31; [2]
  CC50: 61.7 µM
NCI-H226
  GI50: 15.5 µM
  IC50: 33.1 µM
  IC (TGI): 32.4 µM
NCI-H226; [2]
  CC50: 67.6 µM
[1]; MV4-11, 72 h, MV-4-11 cells, 3 days, CellTiter-Glo 2.0, read-out: IC50 (uM) [Cell Type: MV-4-11]
  IC50: 0.999 µM
[1]; MV4-11, bound stated in text, read-out: IC50 against MV-4-11 acute myeloid leukemia cells
  IC50: < 2 µM

Reference: patent US20240109903A1, “SUBSTITUTED HETEROCYCLES FOR TREATING CANCER” (Northwestern University, priority 2022, published 2024)
